Reference: patent US20120164104A1, “Composition and Methods of Treating Viral Infections and Viral Induced Tumors” (Chimerix, Inc., priority 2009, published 2012)
Read-outs that look alike come from different tables or passages of the source.

Experiments:
Het-1A = experiment: Cell proliferation assay (MTS or SRB), Het-1A; type: cell-based; settings: Homo sapiens, 72 h, Esophagus (Normal), SV40 large T immortalized, 3 days, read-out: IC50 (cell growth inhibition)
Method: (§1) In vitro cell proliferation assays were performed using a 96-well plate based MTSassay (CellTiter 96° AqueousOne Solution Cell Proliferation Assay, Promega) or SRB (Sulforhodamine-B) assay (1-3). Briefly, cells were plated in 100 μl medium on day 0 in 96-well microtiter plates (Falcon #3072). On day 1, 10 μl of serial dilutions of each compound (Nine 1:2 dilutions with a starting concentration of 100 μM; in some cases, a starting concentration of 400 μM (CMX001 or Cidofovir) or 1 μM (some standard agents)) were added in triplicates to the plates. For standard agents using DMSO as solvent, serial dilutions of DMSO with a starting concentration of 0.5% were also included as a vehicle control.
(§2) After incubation for 3 days at 37° C. in a humidified incubator, viable cells were measured either by MTS or SRB assay. […]
(§3) Next, cells were stained with 20 μL of 0.2% SRB in 1% acetic acid and incubated at room temperature for 30 minutes and unbound SRB was removed by washing 5 times with 1% acetic acid and air-dried. Finally, bound SRB stain was solubilized in 50 μL of 50 μM Tris buffer before taking an optical density measurement at 570 nm using the BioTek microplate reader. The growth inhibition data were expressed as the percentage of cell survival calculated from the background corrected absorbance. […]

SK-HEP-1 = experiment: Cell proliferation assay (MTS or SRB), SK-HEP-1; type: cell-based; settings: Homo sapiens, SK-HEP1, 72 h; SK-HEP-1, Liver, 3 days; read-out: IC50 (cell growth inhibition)
Method: as §1
(§4) After incubation for 3 days at 37° C. in a humidified incubator, viable cells were measured either by MTS or SRB assay. For MTS assay, 20 μl of a 20:1 mixture of (3-(4,5-dimethylthiazol-2-yl)-5-(3-carboxymethoxyphenyl)-2-(4-sulfophenyl)-2H-tetrazolium, inner salt (MTS, 2 mg/ml) and an electron coupling reagent, phenazine methosulfate (PMS, 0.92 mg/ml in DPBS), was added to each well and incubated for 3 hours at 37° C. Absorbance was measured using a BioTek Synergy™ HT Multiple Detection microplate reader at 490 nm. For SRB assay, cells were fixed in situ with 50 μL of cold trichloroacetic acid (TCA, final concentration at 10% w/v) for 60 minutes. Cells were then washed 5 times with H2O and air-dried.
as §3, with “absorbance. The surviving fraction of cells was determined by dividing the mean absorbance values of the test agent-treated samples by the mean absorbance values of untreated control.” for “absorbance.”

SiHa = experiment: Cell proliferation assay (MTS or SRB), SiHa; type: cell-based, human; settings: Homo sapiens, 72 h, Cervical, 3 days, read-out: IC50 (cell growth inhibition)
Method: as §1, §4
as §3, with “absorbance. The surviving fraction of cells was determined by dividing the mean absorbance values of the test agent-treated samples by the mean absorbance values of untreated control.” for “absorbance.”

MCF-7 = experiment: Cell proliferation assay (MTS or SRB), MCF-7; type: cell-based; settings: Homo sapiens, MCF7, 72 h; MCF-7, Breast, 3 days; read-out: IC50 (cell growth inhibition)
Method: as §1, §4
as §3, with “absorbance. The surviving fraction of cells was determined by dividing the mean absorbance values of the test agent-treated samples by the mean absorbance values of untreated control.” for “absorbance.”

H460 = experiment: Cell proliferation assay (MTS or SRB), H460; type: cell-based; settings: Homo sapiens, NCI-H460, 72 h; H460, Lung, 3 days; read-out: IC50 (cell growth inhibition)
Method: as §1, §4
as §3, with “absorbance. The surviving fraction of cells was determined by dividing the mean absorbance values of the test agent-treated samples by the mean absorbance values of untreated control.” for “absorbance.”

MDA-231 = experiment: Cell proliferation assay (MTS or SRB), MDA-231; type: cell-based; settings: Homo sapiens, MDA-MB-231, 72 h; MDA-231, Breast, 3 days; read-out: IC50 (cell growth inhibition)
Method: as §1, §4
as §3, with “absorbance. The surviving fraction of cells was determined by dividing the mean absorbance values of the test agent-treated samples by the mean absorbance values of untreated control.” for “absorbance.”

THLE-3 = experiment: Cell proliferation assay (MTS or SRB), THLE-3; type: cell-based; settings: Homo sapiens, THLE3, 72 h; THLE-3, Liver (Normal), SV40 large T immortalized, 3 days; read-out: IC50 (cell growth inhibition)
Method: as §1, §2, §3

DU 145 = experiment: Cell proliferation assay (MTS or SRB), DU 145; type: cell-based; settings: Homo sapiens, 72 h; DU 145, Prostate, 3 days; read-out: IC50 (cell growth inhibition)
Method: as §1, §4
as §3, with “absorbance. The surviving fraction of cells was determined by dividing the mean absorbance values of the test agent-treated samples by the mean absorbance values of untreated control.” for “absorbance.”

HT-29 = experiment: Cell proliferation assay (MTS or SRB), HT-29; type: cell-based, human; settings: Homo sapiens, 72 h; HT-29, Colon, 3 days; read-out: IC50 (cell growth inhibition)
Method: as §1, §4
as §3, with “absorbance. The surviving fraction of cells was determined by dividing the mean absorbance values of the test agent-treated samples by the mean absorbance values of untreated control.” for “absorbance.”

OVCAR-3 = experiment: Cell proliferation assay (MTS or SRB), OVCAR-3; type: cell-based, human; settings: Homo sapiens, 72 h; OVCAR-3, Ovarian, 3 days; read-out: IC50 (cell growth inhibition)
Method: as §1, §4
as §3, with “absorbance. The surviving fraction of cells was determined by dividing the mean absorbance values of the test agent-treated samples by the mean absorbance values of untreated control.” for “absorbance.”

Hep G2 = experiment: Cell proliferation assay (MTS or SRB), Hep G2; type: cell-based; settings: Homo sapiens, HepG2, 72 h; Hep G2, Liver, 3 days; read-out: IC50 (cell growth inhibition)
Method: as §1, §4
as §3, with “absorbance. The surviving fraction of cells was determined by dividing the mean absorbance values of the test agent-treated samples by the mean absorbance values of untreated control.” for “absorbance.”

MIA PaCa-2 = experiment: Cell proliferation assay (MTS or SRB), MIA PaCa-2; type: cell-based; settings: Homo sapiens, 72 h; MIA PaCa-2, Pancreatic, 3 days; read-out: IC50 (cell growth inhibition)
Method: as §1, §4
as §3, with “absorbance. The surviving fraction of cells was determined by dividing the mean absorbance values of the test agent-treated samples by the mean absorbance values of untreated control.” for “absorbance.”

SK-OV-3 = experiment: Cell proliferation assay (MTS or SRB), SK-OV-3; type: cell-based, human; settings: Homo sapiens, 72 h; SK-OV-3, Ovarian, 3 days; read-out: IC50 (cell growth inhibition)
Method: as §1, §4
as §3, with “absorbance. The surviving fraction of cells was determined by dividing the mean absorbance values of the test agent-treated samples by the mean absorbance values of untreated control.” for “absorbance.”

SW 780 = experiment: Cell proliferation assay (MTS or SRB), SW 780; type: cell-based; settings: Homo sapiens, SW780, 72 h; SW 780, Bladder, 3 days; read-out: IC50 (cell growth inhibition)
Method: as §1, §4
as §3, with “absorbance. The surviving fraction of cells was determined by dividing the mean absorbance values of the test agent-treated samples by the mean absorbance values of untreated control.” for “absorbance.”

SK-MEL-2 = experiment: Cell proliferation assay (MTS or SRB), SK-MEL-2; type: cell-based; settings: Homo sapiens, 72 h; SK-MEL-2, Skin (melanoma), 3 days; read-out: IC50 (cell growth inhibition)
Method: as §1, §4
(§5) Next, cells were stained with 20 μL of 0.2% SRB in 1% acetic acid and incubated at room temperature for 30 minutes and unbound SRB was removed by washing 5 times with 1% acetic acid and air-dried. Finally, bound SRB stain was solubilized in 50 μL of 50 μM Tris buffer before taking an optical density measurement at 570 nm using the BioTek microplate reader. The growth inhibition data were expressed as the percentage of cell survival calculated from the background corrected absorbance. The surviving fraction of cells was determined by dividing the mean absorbance values of the test agent-treated samples by the mean absorbance values of untreated control.
Raw data were acquired using a BioTek Synergy™ HT Multiple Detection microplate reader and imported into Microsoft Excel for analysis. The average signal of each treatment was calculated from the triplicates after subtracting the blank signals. The percentage survival values were calculated using the following formula: % survival=(average signal of the drug treatment/average signal of untreated controls)×100. The data were finally imported into the Prism 4 software (GraphPad Software, San Diego, Calif.) to generate the dose-activity curves using non-linear regression curve fit and to calculate the IC50 values.

BK virus = experiment: Antiviral activity against BK virus in RPTEC cells (viral DNA by qPCR, 5 days); type: cell-based; settings: for EC50: Betapolyomavirus hominis, RPTEC, RPTEC cells
Method: In order to test the activity of CMX001 to inhibit replication of BK virus, stocks of BK virus were prepared in HFF cells and dilutions of the virus stocks were used to infect primary human renal tubular epithelial cells (RPTECs). CMX001 were then added to the wells containing the infected cells and the plates were incubated for 5 days. Total DNA was prepared from the plates and viral DNA was quantified by qPCR.

A549 = experiment: Cell proliferation assay (MTS or SRB), A549; type: cell-based; settings: Homo sapiens, 72 h; A549, Lung, 3 days; read-out: IC50 (cell growth inhibition)
Method: as §1, §4
as §5, with “control. […]” for “control.”

Caki-2 = experiment: Cell proliferation assay (MTS or SRB), Caki-2; type: cell-based; settings: Homo sapiens, 72 h; Caki-2, Kidney, 3 days; read-out: IC50 (cell growth inhibition)
Method: as §1, §4
as §5, with “control. […]” for “control.”

SMILES | IC50 (Het-1A) [µM] | IC50 (SK-HEP-1) [µM] | IC50 (SiHa) [µM] | IC50 (MCF-7) [µM] | IC50 (H460) [µM] | IC50 (MDA-231) [µM] | IC50 (THLE-3) [µM] | IC50 (DU 145) [µM] | IC50 (HT-29) [µM] | IC50 (OVCAR-3) [µM] | IC50 (Hep G2) [µM] | IC50 (MIA PaCa-2) [µM] | IC50 (SK-OV-3) [µM] | IC50 (SW 780) [µM] | IC50 (SK-MEL-2) [µM] | IC50 (A549) [µM] | IC50 (Caki-2) [µM] | also measured
Nc1ccn(C[C@@H](CO)OCP(=O)(O)O)c(=O)n1 [cidofovir] | > 100 | > 100 | 100 | > 100 | > 100 | > 100 | > 100 | > 100 | > 100 | > 100 | > 100 | > 100 | > 100 | > 100 | > 100 | > 100 | > 100 | EC50 (BK virus; virus dilution 1:10, read-out: EC50): 2 µM; EC50 (BK virus; virus dilution 1:50, read-out: EC50): 0.65 µM; EC50 (BK virus; virus dilution 1:100, read-out: EC50): 0.44 µM
CCCCCCCCCCCCCCCCOCCCOP(=O)(O)CO[C@H](CO)Cn1ccc(N)nc1=O [CMX001] | 20.5 | 7.4 | 43.1 | 62 | 12.4 | 11.2 | 7 | 19 | 48.6 | 73.3 | 37.9 | 14.6 | 95.5 | 10 | 70.5 | > 100 | 60 | EC50 (BK virus; virus dilution 1:10): 0.016 µM; EC50 (BK virus; virus dilution 1:50): 0.0035 µM; EC50 (BK virus; virus dilution 1:100): 0.0037 µM; activity against BK virus replication (BK virus; RPTECs, in words): good activity
